Holding throughout (conditions): stereoisomer not certain
Data set [1] can be described thus: RP, Waters CORTECS T3, 100 × 2.1 mm, 2.7 µm, 0.3 mL/min, estimated dead time 0.73 min; A: water + 0.1% formic acid, pH 3; B: methanol + 0.1% formic acid, pH 3; gradient (min/%B) 0/0 5/0 25/100 30/100 30.1/0 35/0.
Assay in data set [2]: as above
The source holds these as a separate data set.

Data set [3] in a line: RP, Waters CORTECS T3, 100 × 2.1 mm, 2.7 µm, 0.2 mL/min, estimated dead time 1.1 min; A: water + 0.1% formic acid, pH 3; B: methanol + 0.1% formic acid, pH 3; gradient (min/%B) 0/0 1/0 6/5 30/100 35/100 35.1/0 40/0.
Assay in data set [4]: as above
The source holds these as a separate data set.

The nature of data set [5]: RP, Waters CORTECS T3, 100 × 2.1 mm, 2.7 µm, 0.25 mL/min, estimated dead time 0.88 min; A: water + 0.1% formic acid, pH 3; B: methanol + 0.1% formic acid, pH 3; gradient (min/%B) 0/0 1/0 6/5 30/100 35/100 35.1/0 40/0.
Data set [6] in a line: RP, Waters CORTECS T3, 100 × 2.1 mm, 2.7 µm, 0.1 mL/min, estimated dead time 2.2 min; A: water + 0.1% formic acid, pH 3; B: methanol + 0.1% formic acid, pH 3; gradient (min/%B) 0/5 5/5 25/95 25.1/100 35/100 35.1/5 45/5.
Data set [7] can be described thus: RP, Waters CORTECS T3, 100 × 2.1 mm, 2.7 µm, 0.2 mL/min, estimated dead time 1.1 min; A: water + 0.1% formic acid, pH 3; B: methanol + 0.1% formic acid, pH 3; gradient (min/%B) 0/5 5/5 25/95 25.1/100 35/100 35.1/5 45/5.
Data set [8] can be described thus: RP, Waters CORTECS T3, 100 × 2.1 mm, 2.7 µm, 0.3 mL/min, estimated dead time 0.73 min; A: water + 0.1% formic acid, pH 3; B: methanol + 0.1% formic acid, pH 3; gradient (min/%B) 0/5 5/5 25/95 25.1/100 35/100 35.1/5 45/5.
Data set [9] in a line: RP, Waters CORTECS T3, 100 × 2.1 mm, 2.7 µm, 0.25 mL/min, estimated dead time 0.88 min; A: water + 0.1% formic acid, pH 3; B: methanol + 0.1% formic acid, pH 3; gradient (min/%B) 0/5 5/5 25/95 25.1/100 35/100 35.1/5 45/5.
Data set [10] can be described thus: RP, Waters CORTECS T3, 100 × 2.1 mm, 2.7 µm, 0.2 mL/min, estimated dead time 1.1 min; A: water + 0.045% formic acid + 0.11% ammonium hydroxide, pH 7; B: methanol; gradient (min/%B) 0/5 5/5 25/95 25.1/100 35/100 35.1/5 45/5.
Data set [11] in a line: RP, Waters ACQUITY UPLC BEH C18, 100 × 2.1 mm, 1.7 µm, 0.1 mL/min, estimated dead time 2.2 min; A: water + 0.1% formic acid, pH 3; B: methanol + 0.1% formic acid, pH 3; gradient (min/%B) 0/5 5/5 25/95 25.1/100 35/100 35.1/5 45/5.
Assay in data set [12]: as above
The source holds these as a separate data set.

Data set [13] is described as follows: RP, Waters ACQUITY UPLC BEH C18, 100 × 2.1 mm, 1.7 µm, 0.1 mL/min, estimated dead time 2.2 min; A: water + 0.045% formic acid + 0.11% ammonium hydroxide, pH 7; B: methanol; gradient (min/%B) 0/5 5/5 25/95 25.1/100 35/100 35.1/5 45/5.
A short description of data set [14]: RP, Waters ACQUITY UPLC BEH C18, 100 × 2.1 mm, 1.7 µm, 0.2 mL/min, estimated dead time 1.1 min; A: water + 0.025% formic acid + 20 mM ammonium acetate + 0.055% ammonium hydroxide, pH 7; B: methanol; gradient (min/%B) 0/5 5/5 25/100 30/100 30.1/5 35/5.
Data set [15] is described as follows: HILIC, Merck SeQuant ZIC-HILIC, 150 × 2.1 mm, 5 µm, 0.75 mL/min, estimated dead time 0.44 min; A: water + 10 mM ammonium formate, pH 6; B: 5% water + 95% acetonitrile + 10 mM ammonium formate, pH 6; gradient (min/%B) 0/95 5/95 20/57 25/57 30/95 40/95.
A short description of data set [16]: HILIC, Merck SeQuant ZIC-HILIC, 150 × 2.1 mm, 5 µm, 0.75 mL/min, estimated dead time 0.44 min; A: water + 0.1% acetic acid + 10 mM ammonium acetate, pH 4; B: 5% water + 95% acetonitrile + 0.1% acetic acid + 10 mM ammonium acetate, pH 4; gradient (min/%B) 0/95 5/95 20/57 25/57 30/95 40/95.
Data set [17] in a line: HILIC, Thermo Scientific Accucore HILIC, 100 × 2.1 mm, 2.6 µm, 0.5 mL/min, estimated dead time 0.44 min; A: water + 0.1% formic acid + 10 mM ammonium formate, pH 3; B: 5% water + 95% acetonitrile + 0.1% formic acid + 10 mM ammonium formate, pH 3; gradient (min/%B) 0/95 5/95 20/57 25/57 30/95 40/95.

As for `CC(C)=CCNc1ncnc2nc[nH]c12` [N6-(DELTA2-ISOPENTENYL)-ADENINE], the LC retention time was 12.7 min in data set [1]; 12.8 min in [2]; 15 min in [3]; 15.1 min in [4]; 14.2 min in [5]; 17 min in data set [6]. Also, the LC retention time in data set [7] was 18.8 min; in data set [8] it was 12 min; in [9], 12.6 min; in data set [10] it was 16.9 min; in data set [11] it was 17.2 min; in data set [12], 17.3 min. The LC retention time in data set [13] was 20.6 min; in data set [14], 15.4 min; in [15], 0.64 min; in data set [16] it was 0.62 min; in [17] it was 0.92 min.

As for `O=C(O)c1cc(=O)c2cccc(O)c2[nH]1` [XANTHURENIC ACID], the LC retention time in data set [1] is 10.3 min; in data set [2], 10.3 min; in [3], 12 min; in data set [4], 12.1 min; in [5], 11.1 min; in data set [6], 13.9 min. For the same compound, the LC retention time in [7] was 15.5 min; in [8], 8.97 min; in [9], 9.71 min; in [11], 14 min; in [12] it was 13.8 min; in data set [14], 1.36 min. Moreover, the LC retention time is 9.77 min in [15], 9.68 min in data set [16] and 7.89 min in [17].

Source of the values: the RepoRT retention time repository (doi:10.1016/j.jchromb.2020.122105).
